Measurements taken from BindingDB's records for doi:10.1016/j.bmcl.2005.08.057 (Novartis Institutes For Biomedical Research, 2005).
pIC50: −log10 of the molar value.

Molecular target: not listed separately
Assay: Inhibitory effect on transwell chemotaxis induced by 1 nM MIP-1alpha in mouse pre-B cells transfected with human CCR1

| Structure (SMILES) | pIC50 |
| --- | --- |
| COc1cc(/C=C/C(=O)N2C3CCC2CN(Cc2ccc(F)cc2)C3)c(NC(C)=O)cc1Cl [N-(2-(3-(3-(4-fluorobenzyl)-3,8-diaza-bicyclo[3.2.1]octan-8-yl)-3-oxoprop-1-enyl)-5-chloro-4-methoxyphenyl)acetamide] | 8.12 |

Molecular target: C-C chemokine receptor type 1 (Rattus norvegicus)
Assay: Antagonistic activity at rat CCR1 in CHO-K1 cells

| Structure (SMILES) | pIC50 |
| --- | --- |
| CC(=O)Nc1cc2ncccc2cc1/C=C/C(=O)N1C2CCC1CN(Cc1ccc(F)cc1)C2 [N-(6-(3-(3-(4-fluorobenzyl)-3,8-diaza-bicyclo[3.2.1]octan-8-yl)-3-oxoprop-1-enyl)quinolin-7-yl)acetamide] | 8.22 |
| CN(C)CC(=O)Nc1cc(Cl)ccc1/C=C/C(=O)N1C2CCC1CN(Cc1ccc(F)cc1)C2 [N-(2-(3-(3-(4-fluorobenzyl)-3,8-diaza-bicyclo[3.2.1]octan-8-yl)-3-oxoprop-1-enyl)-5-chlorophenyl)-2-(dimethylamino)acetamide] | 8.00 |
| COc1cc(/C=C/C(=O)N2C3CCC2CN(Cc2ccc(F)cc2)C3)c(NC(C)=O)cc1Cl [N-(2-(3-(3-(4-fluorobenzyl)-3,8-diaza-bicyclo[3.2.1]octan-8-yl)-3-oxoprop-1-enyl)-5-chloro-4-methoxyphenyl)acetamide] | 9.00 |
| CC(=O)Nc1cc2ncccc2cc1/C=C/C(=O)N1CCN(Cc2ccc(F)cc2)C[C@H]1C [(R)-N-(6-(3-(4-(4-fluorobenzyl)-2-methylpiperazin-1-yl)-3-oxoprop-1-enyl)quinolin-7-yl)acetamide] | 6.52 |
| CC(=O)Nc1cc2ccccc2cc1/C=C/C(=O)N1CCN(Cc2ccc(F)cc2)C[C@H]1C [(R)-N-(3-(3-(4-(4-fluorobenzyl)-2-methylpiperazin-1-yl)-3-oxoprop-1-enyl)naphthalen-2-yl)acetamide] | 5.82 |
